pIC50: −log10 of the molar value.
The compounds below were run against T1, human LPA1 (Homo sapiens, UniProt Q92633) (assay: LPA1 functional antagonist assay (LPA-induced calcium flux in CHO cells overexpressing human LPA1)). Settings: inhibition of calcium flux induced by 10 nM LPA, CHO cells overexpressing human LPA1; read-out: hLPA1 IC50.
T1 construct: expressed in transfected cells; host or cells: Chinese hamster ovary (CHO) cells
Format: cell-based
Method in brief: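 Calcium flux was triggered by 10 nM LPA after 20 min room-temperature compound pre-incubation (final 0.08 nM to 5 μM, 0.5% DMSO) in human LPA1-overexpressing CHO cells carrying calcium dye. Buffer: HBSS with Ca/Mg, 20 mM HEPES, 0.1% fatty-acid-free BSA; IC50s from 4-parameter logistic fits.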

T1 sequence (Q92633 whole entry): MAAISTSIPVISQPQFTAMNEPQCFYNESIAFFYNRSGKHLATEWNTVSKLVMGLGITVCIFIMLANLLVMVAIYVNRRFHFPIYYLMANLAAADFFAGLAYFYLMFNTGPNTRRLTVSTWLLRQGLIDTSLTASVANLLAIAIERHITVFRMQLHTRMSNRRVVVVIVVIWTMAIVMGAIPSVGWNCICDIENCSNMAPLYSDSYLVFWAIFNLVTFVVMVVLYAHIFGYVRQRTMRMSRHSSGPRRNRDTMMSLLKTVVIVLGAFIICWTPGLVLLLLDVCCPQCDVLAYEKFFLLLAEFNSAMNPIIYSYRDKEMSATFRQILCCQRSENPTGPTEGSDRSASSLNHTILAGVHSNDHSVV

SMILES	pIC50
CCCCNc1nnn(Cc2c(-c3ccc(O[C@H]4CCC[C@H](C(=O)O)C4)c(C)n3)nnn2C)n1 [Example 362, (1S,3S)-3-((6-(5-((5-(butylamino)-2H-tetrazol-2-yl)methyl)-1-methyl-1H-1,2,3-triazol-4-yl)-2-methyl-pyridin-3-yl)oxy)cyclohexane-1-carboxylic acid]	6.50

Same assay, conditions: read-out: hLPA1 IC50

SMILES	pIC50
Cc1nc(-c2nnn(C)c2Cn2nnc(N(CC3CC3)CC3CC3)n2)ccc1O[C@H]1CCC[C@H](C(=O)O)C1 [Example 358, (1S,3S)-3-((6-(5-((5-(bis(cyclo-propylmethyl)amino)-2H-tetrazol-2-yl)methyl)-1-methyl-1H-1,2,3-triazol-4-yl)-2-methylpyridin-3-yl)oxy)cyclohexane-1-carboxylic acid]	6.02
Cc1nc(-c2nnn(C)c2Cn2nnc(NCC3CC3)n2)ccc1O[C@H]1CCC[C@H](C(=O)O)C1 [Example 359, (1S,3S)-3-((6-(5-((5-((cyclopropylmethyl)amino)-2H-tetrazol-2-yl)methyl)-1-methyl-1H-1,2,3-triazol-4-yl)-2-methylpyridin-3-yl)oxy)cyclohexane-1-carboxylic acid]	6.37
Cc1nc(-c2nnn(C)c2Cn2nnc(N(C)Cc3ccccc3)n2)ccc1O[C@H]1CCC[C@H](C(=O)O)C1 [Example 364, (1S,3S)-3-((6-(5-((5-(benzyl(methyl)amino)-2H-tetrazol-2-yl)methyl)-1-methyl-1H-1,2,3-triazol-4-yl)-2-methylpyridin-3-yl)oxy)cyclohexane-1-carboxylic acid]	6.56
CCCCn1nnnc1Cc1c(-c2ccc(O[C@H]3CCC[C@H](C(=O)O)C3)c(C)n2)nnn1C [Example 365, (1S,3S)-3-((6-(5-((1-butyl-1H-tetrazol-5-yl)methyl)-1-methyl-1H-1,2,3-triazol-4-yl)-2-methylpyridin-3-yl)oxy)cyclohexane-1-carboxylic acid]	6.49
Cc1nc(-c2nnn(C)c2Cn2nnc(N(Cc3ccccc3)Cc3ccccc3)n2)ccc1O[C@H]1CCC[C@H](C(=O)O)C1 [Example 367, (1S,3S)-3-((6-(5-((5-(dibenzyl-amino)-2H-tetrazol-2-yl)methyl)-1-methyl-1H-1,2,3-triazol-4-yl)-2-methylpyridin-3-yl)oxy)cyclo-hexane-1-carboxylic acid]	5.80
Cc1nc(-c2nnn(C)c2Cn2nnc(NCc3ccccc3)n2)ccc1O[C@H]1CCC[C@H](C(=O)O)C1 [Example 368, (1S,3S)-3-((6-(5-((5-(benzylamino)-2H-tetrazol-2-yl)methyl)-1-methyl-1H-1,2,3-triazol-4-yl)-2-methyl-pyridin-3-yl)oxy)cyclohexane-1-carboxylic acid]	5.99
CCc1nc(-c2nnn(C)c2Cn2cc(C(C)C)nn2)ccc1O[C@H]1CCC[C@H](C(=O)O)C1 [Example 371, (1S,3S)-3-((2-ethyl-6-(5-((4-isopropyl-1H-1,2,3-triazol-1-yl)methyl)-1-methyl-1H-1,2,3-triazol-4-yl)pyridin-3-yl)oxy)cyclohexane-1-carboxylic acid]	5.81
CCCc1cn(Cc2c(-c3ccc(O[C@H]4CCC[C@H](C(=O)O)C4)c(CC)n3)nnn2C)nn1 [Example 372, (1S,3S)-3-((2-ethyl-6-(1-methyl-5-((4-propyl-1H-1,2,3-triazol-1-yl)methyl)-1H-1,2,3-triazol-4-yl)pyridin-3-yl)oxy)cyclohexane-1-carboxylic acid]	6.52
CCCCCc1cn(Cc2c(-c3ccc(O[C@H]4CCC[C@H](C(=O)O)C4)c(CC)n3)nnn2C)nn1 [Example 375, (1S,3S)-3-((2-ethyl-6-(1-methyl-5-((4-pentyl-1H-1,2,3-triazol-1-yl)methyl)-1H-1,2,3-triazol-4-yl)pyridin-3-yl)oxy)cyclohexane-1-carboxylic acid]	6.23
CCn1nnc(NCc2c(-c3ccc(O[C@H]4CCC[C@H](C(=O)O)C4)c(C)n3)nnn2C)n1 [Example 376, (1S,3S)-3-((6-(5-(((2-ethyl-2H-tetrazol-5-yl)amino)methyl)-1-methyl-1H-1,2,3-triazol-4-yl)-2-methylpyridin-3-yl)oxy)cyclohexane-1-carboxylic acid]	5.68
Cc1nc(-c2nnn(C)c2CN(CC2CC2)c2nnn(CC3CC3)n2)ccc1O[C@H]1CCC[C@H](C(=O)O)C1 [Example 377, (1S,3S)-3-((6-(5-(((cyclopropyl-methyl)(2-(cyclopropylmethyl)-2H-tetrazol-5-yl)amino)methyl)-1-methyl-1H-1,2,3-triazol-4-yl)-2-methylpyridin-3-yl)oxy)cyclohexane-1-carboxylic acid]	5.91
Cc1nc(-c2nnn(C)c2CNc2nnnn2CC2CC2)ccc1O[C@H]1CCC[C@H](C(=O)O)C1 [Example 378, (1S,3S)-3-((6-(5-(((1-(cyclopropylmethyl)-1H-tetrazol-5-yl)amino)methyl)-1-methyl-1H-1,2,3-triazol-4-yl)-2-methylpyridin-3-yl)oxy)cyclohexane-1-carboxylic acid]	6.52
COc1ccc(-n2nnc(NCc3c(-c4ccc(O[C@H]5CCC[C@@H](C(=O)O)C5)c(C)n4)nnn3C)n2)cc1 [Example 379, (1R,3S)-3-((6-(5-(((2-(4-methoxy-phenyl)-2H-tetrazol-5-yl)amino)methyl)-1-methyl-1H-1,2,3-triazol-4-yl)-2-methylpyridin-3-yl)oxy)cyclohexane-1-carboxylic acid]	5.68
Cc1ccccc1-n1nnc(NCc2c(-c3ccc(O[C@H]4CCC[C@H](C(=O)O)C4)c(C)n3)nnn2C)n1 [Example 381, (1S,3S)-3-((2-methyl-6-(1-methyl-5-(((2-(o-tolyl)-2H-tetrazol-5-yl)amino)methyl)-1H-1,2,3-triazol-4-yl)pyridin-3-yl)oxy)cyclohexane-1-carboxylic acid]	6.50
CCCCn1nnc(NCc2c(-c3ccc(O[C@H]4CCC[C@H](C(=O)O)C4)c(C)n3)nnn2C)n1 [Example 382, (1S,3S)-3-((6-(5-(((2-butyl-2H-tetrazol-5-yl)amino)methyl)-1-methyl-1H-1,2,3-triazol-4-yl)-2-methylpyridin-3-yl)oxy)cyclo-hexane-1-carboxylic acid]	6.28
COc1ccc(-n2nnc(NCc3c(-c4ccc(O[C@H]5CCC[C@H](C(=O)O)C5)c(C)n4)nnn3C)n2)cc1 [Example 383, (1S,3S)-3-((6-(5-(((2-(4-methoxy-phenyl)-2H-tetrazol-5-yl)amino)methyl)-1-methyl-1H-1,2,3-triazol-4-yl)-2-methylpyridin-3-yl)oxy)cyclohexane-1-carboxylic acid]	6.29

Second part, the compound after the results:

pIC50	SMILES
7.04	Cc1nc(-c2nnn(C)c2Cc2nnn(CC3CC3)n2)ccc1O[C@H]1CCC[C@H](C(=O)O)C1 [Example 360, (1S,3S)-3-((6-(5-((2-(cyclopropyl-methyl)-2H-tetrazol-5-yl)methyl)-1-methyl-1H-1,2,3-triazol-4-yl)-2-methylpyridin-3-yl)oxy)cyclo-hexane-1-carboxylic acid]
6.64	CCCCN(C)c1nnn(Cc2c(-c3ccc(O[C@H]4CCC[C@H](C(=O)O)C4)c(C)n3)nnn2C)n1 [Example 361, (1S,3S)-3-((6-(5-((5-(butyl(methyl)amino)-2H-tetrazol-2-yl)methyl)-1-methyl-1H-1,2,3-triazol-4-yl)-2-methylpyridin-3-yl)oxy)cyclo-hexane-1-carboxylic acid]
6.64	CCCCN(CCCC)c1nnn(Cc2c(-c3ccc(O[C@H]4CCC[C@H](C(=O)O)C4)c(C)n3)nnn2C)n1 [Example 363, (1S,3S)-3-((6-(5-((5-(dibutylamino)-2H-tetrazol-2-yl)methyl)-1-methyl-1H-1,2,3-triazol-4-yl)-2-methyl-pyridin-3-yl)oxy)cyclohexane-1-carboxylic acid]
7.37	CCCCn1nnc(Cc2c(-c3ccc(O[C@H]4CCC[C@H](C(=O)O)C4)c(C)n3)nnn2C)n1 [Example 366, (1S,3S)-3-((6-(5-((2-butyl-2H-tetrazol-5-yl)methyl)-1-methyl-1H-1,2,3-triazol-4-yl)-2-methylpyridin-3-yl)oxy)cyclohexane-1-carboxylic acid]
6.91	Cc1nc(-c2nnn(C)c2Cc2nnnn2Cc2ccccc2)ccc1O[C@H]1CCC[C@H](C(=O)O)C1 [Example 369, (1S,3S)-3-((6-(5-((1-benzyl-1H-tetrazol-5-yl)methyl)-1-methyl-1H-1,2,3-triazol-4-yl)-2-methylpyridin-3-yl)oxy)cyclohexane-1-carboxylic acid]
7.18	CCc1nc(-c2nnn(C)c2Cn2cc(CC(C)C)nn2)ccc1O[C@H]1CCC[C@H](C(=O)O)C1 [Example 370, (1S,3S)-3-((2-ethyl-6-(5-((4-isobutyl-1H-1,2,3-triazol-1-yl)methyl)-1-methyl-1H-1,2,3-triazol-4-yl)pyridin-3-yl)oxy)cyclohexane-1-carboxylic acid]
6.87	Cc1nc(-c2nnn(C)c2Cc2nnn(CC(C)C)n2)ccc1O[C@H]1CCC[C@H](C(=O)O)C1 [Example 373, (1S,3S)-3-((6-(5-((2-isobutyl-2H-tetrazol-5-yl)methyl)-1-methyl-1H-1,2,3-triazol-4-yl)-2-methylpyridin-3-yl)oxy)cyclohexane-1-carboxylic acid]
6.68	Cc1nc(-c2nnn(C)c2Cc2nnnn2CC(C)C)ccc1O[C@H]1CCC[C@H](C(=O)O)C1 [Example 374, (1S,3S)-3-((6-(5-((1-isobutyl-1H-tetrazol-5-yl)methyl)-1-methyl-1H-1,2,3-triazol-4-yl)-2-methylpyridin-3-yl)oxy)cyclohexane-1-carboxylic acid]
6.74	Cc1cccc(-n2nnc(NCc3c(-c4ccc(O[C@H]5CCC[C@H](C(=O)O)C5)c(C)n4)nnn3C)n2)c1 [Example 380, (1S,3S)-3-((2-methyl-6-(1-methyl-5-(((2-(m-tolyl)-2H-tetrazol-5-yl)amino)methyl)-1H-1,2,3-triazol-4-yl)pyridin-3-yl)oxy)cyclohexane-1-carboxylic acid]
